Patent publication US20200138028A1, “MICROBIOCIDAL OXADIAZOLE DERIVATIVES” (SYNGENTA PARTICIPATIONS AG, priority 2016, published 2020)

Experiments:
[1] = test system: Puccinia recondita f. sp. tritici; experiment: Puccinia recondita f. sp. tritici / wheat / leaf disc curative (brown rust); assay type: in vivo; settings: foliar, 200 ppm in the applied formulation, wheat leaf segments cv. Kanzler, applied 1 day after inoculation, 6 to 8 days after application, read-out: disease control compared to untreated control leaf disks
Description: Leaf disks or leaf segments of various plant species are cut from plants grown in a greenhouse. The cut leaf disks or segments are placed in multiwell plates (24-well format) onto water agar. The leaf disks are sprayed with a test solution before (preventative) or after (curative) inoculation. Compounds to be tested are prepared as DMSO solutions (max. 10 mg/ml) which are diluted to the appropriate concentration with 0.025% Tween20 just before spraying. The inoculated leaf disks or segments are incubated under defined conditions (temperature, relative humidity, light, etc.) according to the respective test system. A single evaluation of disease level is carried out 3 to 14 days after inoculation, depending on the pathosystem. Percent disease control relative to the untreated check leaf disks or segments is then calculated.
Wheat leaf segments cv. Kanzler are placed on agar in multiwell plates (24-well format). The leaf segments are then inoculated with a spore suspension of the fungus. Plates were stored in darkness at 19° C. and 75% relative humidity. The formulated test compound diluted in water was applied 1 day after inoculation. The leaf segments were incubated at 19° C. and 75% relative humidity under a light regime of 12 hours light/12 hours darkness in a climate cabinet and the activity of a compound was assessed as percent disease control compared to untreated when an appropriate level of disease damage appears in untreated check leaf segments (6 to 8 days after application).
The following compounds at 200 ppm in the applied formulation give at least 80% disease control in this test when compared to untreated control leaf disks under the same conditions, which show extensive disease development.

[2] = test system: Glomerella laqenarium (Colletotrichum laqenarium); experiment: Glomerella laqenarium (Colletotrichum laqenarium) liquid culture / cucumber / preventative (anthracnose); assay type: cell-based; settings: 20 ppm in the applied formulation, liquid culture in PDB, 24° C., 3 to 4 days after application, read-out: disease control compared to untreated control (inhibition of growth, photometric)
Description: Mycelia fragments or conidia suspensions of a fungus prepared either freshly from liquid cultures of the fungus or from cryogenic storage, are directly mixed into nutrient broth. DMSO solutions of the test compound (max. 10 mg/ml) are diluted with 0.025% Tween20 by a factor of 50 and 10 μl of this solution is pipetted into a microtiter plate (96-well format). The nutrient broth containing the fungal spores/mycelia fragments is then added to give an end concentration of the tested compound. The test plates are incubated in the dark at 24° C. and 96% relative humidity. The inhibition of fungal growth is determined photometrically after 2 to 7 days, depending on the pathosystem, and percent antifungal activity relative to the untreated check is calculated.
Conidia of the fungus from cryogenic storage are directly mixed into nutrient broth (PDB—potato dextrose broth). After placing a (DMSO) solution of test compound into a microtiter plate (96-well format), the nutrient broth containing the fungal spores is added. The test plates are incubated at 24° C. and the inhibition of growth is measured photometrically 3 to 4 days after application.
The following compounds at 20 ppm in the applied formulation give at least 80% disease control in this test when compared to untreated control under the same conditions, which show extensive disease development.

| melting point | SMILES | pest or weed control at 200 ppm [1] | inhibition at 20 ppm [2] |
| --- | --- | --- | --- |
|  | CC1(C(=O)Nc2ccc(-c3noc(C(F)(F)F)n3)cc2F)CC1 [Compound 1.10, N-[2-fluoro-4-[5-(trifluoromethyl)-1,2,4-oxadiazol-3-yl]phenyl]-1-methyl-cyclopropanecarboxamide] | ≥ 80% | ≥ 80% |
|  | CC1CC1C(=O)Nc1ccc(-c2noc(C(F)(F)F)n2)cc1F (stereo not drawn) [Compound 1.9, N-[2-fluoro-4-[5-(trifluoromethyl)-1,2,4-oxadiazol-3-yl]phenyl]-2-methyl-cyclopropanecarboxamide] |  | ≥ 80% |
|  | O=C(Nc1ccc(-c2noc(C(F)(F)F)n2)cc1F)C1CCOC1 (stereo not drawn) [Compound 1.7, N-[2-fluoro-4-[5-(trifluoromethyl)-1,2,4-oxadiazol-3-yl]phenyl]tetrahydrofuran-3-carboxamide] | ≥ 80% | ≥ 80% |
|  | Cc1cc(-c2noc(C(F)(F)F)n2)ccc1NC(=O)C1(C)CC1 [Compound 1.19, 1-methyl-N-[2-methyl-4-[5-(trifluoromethyl)-1,2,4-oxadiazol-3-yl]phenyl]cyclopropane carboxamide] | ≥ 80% | ≥ 80% |
|  | O=C(Nc1ccc(-c2noc(C(F)(F)F)n2)cc1F)C1CCCO1 (stereo not drawn) [Compound 1.11, N-[2-fluoro-4-[5-(trifluoromethyl)-1,2,4-oxadiazol-3-yl]phenyl]tetrahydrofuran-2-carboxamide] |  | ≥ 80% |
|  | O=C(Nc1ccc(-c2noc(C(F)(F)F)n2)cc1F)C1CCC1 [Compound 1.8, N-[2-fluoro-4-[5-(trifluoromethyl)-1,2,4-oxadiazol-3-yl]phenyl] cyclobutanecarboxamide] |  | ≥ 80% |
|  | N#CC1(C(=O)Nc2ccc(-c3noc(C(F)(F)F)n3)cc2F)CC1 [Compound 1.12, 1-cyano-N-[2-fluoro-4-[5-(trifluoromethyl)-1,2,4-oxadiazol-3-yl]phenyl]cyclopropane carboxamide] | ≥ 80% | ≥ 80% |
| 185 to 196 °C | Cc1cc(-c2noc(C(F)(F)F)n2)ccc1NC(=O)C1CC1 [Compound 1.1, N-[2-methyl-4-[5-(trifluoromethyl)-1,2,4-oxadiazol-3-yl]phenyl]cyclopropane carboxamide] |  |  |
| 173 to 176 °C | Cc1cc(-c2noc(C(F)(F)F)n2)ccc1NC(=O)c1ccccc1 [Compound 1.2, N-[2-methyl-4-[5-(trifluoromethyl)-1,2,4-oxadiazol-3-yl]phenyl]benzamide] |  |  |
|  | Cc1cc(-c2noc(C(F)(F)F)n2)ccc1NC(=O)C1CCOC1 (stereo not drawn) [Compound 1.16, N-[2-methyl-4-[5-(trifluoromethyl)-1,2,4-oxadiazol-3-yl]phenyl]tetrahydrofuran-3-carboxamide] |  | ≥ 80% |
|  | Cc1cc(-c2noc(C(F)(F)F)n2)ccc1NC(=O)C1CCCO1 (stereo not drawn) [Compound 1.20, N-[2-methyl-4-[5-(trifluoromethyl)-1,2,4-oxadiazol-3-yl]phenyl]tetrahydrofuran-2-carboxamide] | ≥ 80% | ≥ 80% |
|  | O=C(Nc1ccc(-c2noc(C(F)(F)F)n2)cc1F)C1CC1(F)F (stereo not drawn) [Compound 1.5, 2,2-difluoro-N-[2-fluoro-4-[5-(trifluoromethyl)-1,2,4-oxadiazol-3-yl]phenyl]cyclopropane carboxamide] | ≥ 80% | ≥ 80% |
| 166 to 175 °C | O=C(Nc1ccc(-c2noc(C(F)(F)F)n2)cc1F)c1ccccc1 [Compound 1.4, N-[2-fluoro-4-[5-(trifluoromethyl)-1,2,4-oxadiazol-3-yl]phenyl]benzamide] |  |  |
| 160 to 162 °C | O=C(Nc1ccc(-c2noc(C(F)(F)F)n2)cc1F)C1CC1 [Compound 1.3, N-[2-fluoro-4-[5-(trifluoromethyl)-1,2,4-oxadiazol-3-yl]phenyl]cyclopropane carboxamide] | ≥ 80% | ≥ 80% |
|  | O=C(CC1CC1)Nc1ccc(-c2noc(C(F)(F)F)n2)cc1F [Compound 1.13, 2-cyclopropyl-N-[2-fluoro-4-[5-(trifluoromethyl)-1,2,4-oxadiazol-3-yl]phenyl]acetamide] | ≥ 80% | ≥ 80% |
